By logP is commonly meant a log measure of how a compound divides between an organic and an aqueous phase.

With `CCCC1CNC(C(=O)NC(C(C)O)C2OC(SC)C(O)C(O)C2O)C1` (centres undefined), the log partition coefficient (logP) amounted to 0.04.
To `COc1ccc(Cc2cnc(N)nc2N)c(OC)c1OC` belongs 1.52.
With `O=C(O)c1ccc[nH]1`, the logP worked out at 0.85.
The value for `Cn1cnc2ccccc2c1=O` was 0.69.
The value for `CC(Cl)C(=O)N(CC(=O)Nc1ccccc1)c1ccccc1` (centres undefined) was 3.02.
With `Nc1nnc(N)[nH]1`, the logP was -1.61.
To `O=C1C=CC(=NCl)C=C1` belongs 1.26; to `COc1ccc(-c2nc3ncccc3[nH]2)c(OC)c1`, 2.57; to `O=C1CN=C(c2ccc[nH]2)c2cc(Cl)ccc2N1`, 2.59.
The value for `Cc1c2ccncc2cc2c1[nH]c1ccccc12` was 4.06; that for `CC(C)(C)/[N+]([O-])=C/c1ccccc1` was 1.26.
The value for `CC(=O)Nc1cccc(I)c1` was 2.64; that for `O=C(O)c1ccccc1-c1ccccc1` was 2.89; that for `CCC(=O)OCCOc1ccc(C=NO)cc1OC` was 1.52.
In turn, `COC1OC(COC(C)=O)C(OC(C)=O)C(NC(=O)N(CCCl)N=O)C1OC(C)=O` (centres undefined) came in with a logP of 0.67.
The value for `CC=CC(=O)Nc1ccc(Cl)c(Cl)c1` was 3.63.
To `CCC[Si](C)(C)C` belongs 3.84; to `Nc1ccc(S(=O)(=O)[O-])c2ccccc12.[Na+]`, -2.34.
To `O=C(Nc1ccc(Cl)c(Cl)c1)c1ccccc1` belongs 4.42.
Compound `CCCCCCC1OC(=O)c2cc(N)ccc21` (centres undefined) had a logP of 3.65.
`CCCc1ccc(NC(C)=O)cc1` gave a log partition coefficient (logP) of 2.75.
To `O=NN(CCCl)C(=O)NC1CCC(NC(=O)N(CCCl)N=O)CC1` (centres undefined) belongs 2.74; to `CN(C(=O)CCC#N)c1ccc(S(=O)(=O)N(C)C)cc1`, -0.17; to `NC(=O)c1ncccc1O`, 0.65.
Compound `CN(C(=O)CCO)c1ccc(S(=O)(=O)N(C)C)cc1` had a lipophilicity (logP) of -0.26.
For the compound `Cc1ccc(S(=O)(=O)Oc2ccccc2C(=O)N(C)C)cc1`, the logP came out at 2.01.
To `CSc1cccc(NC(C)=O)c1` belongs 2.14; to `CNC(=S)NC12CC3CC(CC(C3)C1)C2`, 2.67; to `CC(C)Cn1c(=O)n(C)c(=O)c2[nH]cnc21`, 1.15.
To `O=C(OCCNC(=O)C(F)(F)F)c1ccccc1` belongs 2.25; to `CC1(C)OCCO1`, 0.46; to `CC(=O)OC1COC(NC(=O)N(CCl)N=O)C(OC(C)=O)C1OC(C)=O` (centres undefined), 1.13.
To `CCOC(=O)c1cncn1C(C)c1ccccc1` (centres undefined) belongs 3.05; to `Cc1nnc(SCc2ccccc2)s1`, 2.35.
Take `CC1=Nc2ccc(I)cc2S(=O)(=O)N1`: the logP is 1.61.
In the case of `NCC(CC(=O)O)c1ccc(Cl)cc1` (centres undefined), the log partition coefficient (logP) is -0.96.
To `O=C(O)c1cc(=O)c2cc3c(cc2o1)CCCC3` belongs 3.4; to `CC(=O)Nc1cccc(OCc2cccc(N3C(N)=NC(N)=NC3(C)C)c2)c1`, 1.15.
To `CC(=O)Nc1ccc(CN(C)N=Nc2ccc(C(=O)O)cc2)cc1` belongs 3.35.
The value for `CCCCC(=O)Nc1ccc(Cl)c(Cl)c1` was 4.17; that for `O=NN(CCCl)C(=O)Nc1ccc(Cl)cc1` was 3.16; that for `CC1(C)OC2CC3C4CC(F)C5=CC(=O)C(Cl)=CC5(C)C4(F)C(O)CC3(C)C2(C(=O)CO)O1` (centres undefined) was 2.99.
For the compound `CN(Cc1ccccc1)N=Nc1ccc(C(=O)O)cc1`, the logP came out at 4.04.
In the case of `Cn1c(SCC2=C(C(=O)O)N3C(=O)C(NC(=O)Cc4cccs4)C3SC2)nnc(O)c1=O` (centres undefined), the log partition coefficient (logP) is -0.52.
The value for `O=S1(=O)NC(C2=CCCC2)=Nc2ccccc21` was 1.69; that for `COc1cc(Cc2cnc(N)nc2N)cc(OC)c1N(C)C` was 1.51; that for `CC(=O)Nc1ccccc1C#N` was 0.57.
The value for `COC(=O)c1cc2nc(S(=O)Cc3ncccc3C)[nH]c2cc1C` (centres undefined) was 2.4; that for `COc1cccc(OC)c1OC` was 1.53.

The values are drawn from the OPERA property sets (Mansouri et al. 2018).
